Results reported in patent publication US10100032B2, “Crystalline forms of 3-(4-amino-1-oxo-1,3 dihydro-isoindol-2-yl)-piperidine-2,6-dione” (AMPLIO PHARMA, LLC, priority 2011, dated 2018).

Assays:
[1] = Water slurry analysis of lenalidomide cocrystals; format: physicochemical; design: key: If the cocrystal was intact, the cocrystal could be described as less soluble than the stable 3-(4-amino-1-oxo-1,3 dihydro-isoindol-2-yl)-piperidine-2,6-dione form in water (characterized as “stable”); the cocrystal transformation indicates that under those conditions the cocrystal is more soluble than the stable form of the 3-(4-amino-1-oxo-1,3 dihydro-isoindol-2-yl)-piperidine-2,6-dione in water (characterized as “transformed”); settings: slurry of ~8 to 10 mg of cocrystal in 1 mL of pure water, stirred for 24 hours, solid isolated by filtration and analyzed by XRPD
Experimental: The solubility of the cocrystals obtained in Examples 1, 2, 3, 4, 5, 6, 7, and 8 were compared to the stable form of the API in pure water by creating a slurry of ˜8 to 10 mg of cocrystal in 1 mL of water. The resulting slurry was stirred for 24 hours. The solid was isolated by filtration and analyzed by XRPD.

[2] = Stability testing of lenalidomide cocrystals; format: physicochemical; design: key: the solids remained as the starting cocrystal material, indicating that they are stable under these conditions (“stable”); transformed partially or completely into a different crystalline material, indicating that they are not stable under these conditions (“not stable”); settings: stored at 40 degrees Celsius and 75% relative humidity (saturated NaCl) for 14 days, XRPD

Row | Water slurry result [1] | Stability test result [2] | Structure (SMILES)
1 | transformed | not stable | Nc1cccc2c1CN(C1CCC(=O)NC1=O)C2=O (centres unmarked) [propyl gallate cocrystal of lenalidomide, 3-(4-amino-1-oxo-1,3-dihydroisoindol-2-yl)piperidine-2,6-dione-propylgallate cocrystal]
2 | transformed | not stable | Nc1cccc2c1CN(C1CCC(=O)NC1=O)C2=O [L-tartaric acid cocrystal of lenalidomide] [3-(4-amino-1-oxo-1,3-dihydroisoindol-2-yl)piperidine-2,6-dione-L-tartaric acid cocrystal]
3 | transformed | stable | Nc1cccc2c1CN(C1CCC(=O)NC1=O)C2=O (centres unmarked) [oxallic acid cocrystal of lenalidomide, 3-(4-amino-1-oxo-1,3-dihydroisoindol-2-yl)piperidine-2,6-dione and oxalic acid cocrystal]
4 | transformed | stable | Nc1cccc2c1CN(C1CCC(=O)NC1=O)C2=O (centres unmarked) [ammonium chloride cocrystal of lenalidomide] [3-(4-amino-1-oxo-1,3-dihydroisoindol-2-yl)piperidine-2,6-dione-ammonium chloride cocrystal]
5 | transformed | stable | Nc1cccc2c1CN(C1CCC(=O)NC1=O)C2=O (centres unmarked) [urea cocrystal of lenalidomide, 3-(4-amino-1-oxo-1,3-dihydroisoindo-2-yl)piperidine-2,6-dione-urea cocrystal]
6 | transformed | stable | Nc1cccc2c1CN(C1CCC(=O)NC1=O)C2=O (centres unmarked) [gallic acid cocrystal of lenalidomide, 3-(4-amino-1-oxo-1,3-dihydroisoindol-2-yl)piperidine-2,6-dione-gallic acid cocrystal]
7 | transformed | not stable | Nc1cccc2c1CN(C1CCC(=O)NC1=O)C2=O (centres unmarked) [malonic acid cocrystal of lenalidomide, 3-(4-amino-1-oxo-1,3-dihydroisoindol-2-yl)piperidine-2,6-dione-malonic acid cocrystal]
